Results published in publication PMC11035632, “Discovery of gefitinib-1,2,3-triazole derivatives against lung cancer via inducing apoptosis and inhibiting the colony formation” (Scientific Reports, 2024).

Assays:
NCI-H1299 cells = assay: CCK-8 assay for cell proliferation and cytotoxicity, NCI-H1299; assay type: cell-based; conditions: Homo sapiens, CCK-8, 48 h
Description: (§1) Three types of lung cells were seeded into 96-well plate at a density of 5 × 10^3 cells per well at logarithmic growth phase and cultured in 37 °C. […] After that, cell viability was determined according to the instruction of the CCK-8 assay. Next, 10 μL of CCK-8 solution was added to each well of the plate and incubate the plate for 1–4 h in the incubator. The absorbance was measured at 450 nm using a microplate reader (Bio-Tek). The percentage of viable cells was measured using the following formula where three independent experiments were performed: [(A450 sample − A450blank)/(A450 control − A450blank)] × 100%.

NCI-H1437 cells = assay: CCK-8 assay for cell proliferation and cytotoxicity, NCI-H1437; assay type: cell-based; conditions: Homo sapiens, CCK-8, 48 h, read-out: IC50 1437
Description: as §1

A549 cells = assay: CCK-8 assay for cell proliferation and cytotoxicity, A549; assay type: cell-based; conditions: Homo sapiens, CCK-8, 48 h
Description: A549 cells were cultured in a humidified incubator at 37 °C with 5% CO2 in Ham’s F-12 K (PM150910, Procell) supplemented with 10% FBS and 1% Penicillin Streptomycin.
as §1

L02 cells = assay: Cytotoxicity / survival rate in normal hepatocytes L02; assay type: cell-based; conditions: for Survival rate %, 48 h: L02 cells
H1299 cells [1] = assay: Colony formation assay; assay type: cell-based, human; conditions: 7 days
Excerpt: The colony formation assay is an important method for evaluating the ability of adherent cells to proliferate and form colonies on a plate, and it is widely used to assess cell proliferation. We also employed the colony formation assay to further confirm that compounds 7a and 7j can inhibit the proliferation of lung cancer cells, as shown in Fig. 5. After treating lung cancer cells with low, medium, and high concentrations (1, 2, 4 μmol/L) of compounds for 7 days, the number of cell colonies was counted to analyze the proliferation inhibition rate.
H1299 cells were seeded in six-well plates at a density of 500 cells per well and treated with 7a or 7j (1, 2 and 4 μmol/L) for 7 days. Then, cells were per-fixed with 4% paraformaldehyde for 30 min, stained with 0.1% Crystal violet for 15 min, and then washed with pure water. Taking a picture after the plates were air-dry. The clone formations number was counted with Image J.

H1299 cells [2] = assay: Transwell migration assay; assay type: cell-based, human; conditions: H1299, 2, 4 and 8 μmol/L, 24 h, vs normal control, p < 0.01
Description: Transwell chamber migration assay is another important method to assess cell migration ability. Tumor cells are seeded in the chamber, and the number of tumor cells that pass through the membrane is counted to evaluate the migration ability of tumor cells.
Transwell assay was used to determine the migration ability of H1299 cells. Cells were starved in serum-free RPMI 1640 medium for 24 h, then detached and resuspended in serum-free RPMI 1640 medium. 5 × 10^5 cells/mL were inoculated into the upper chamber of a 24-well Transwell plate (Corning Inc., United States), with a volume of 100 µl per well. Then, 100 µL serum-free medium containing 7a or 7j (2, 4 and 8 μmol/L) was added to the upper chamber and the lower chamber was filled with 700 µL medium containing 20% FBS. After incubation for 24 h, H1299 cells on the upper membrane of the transwell were wiped off. The migrated cells were treated with 4% paraformaldehyde for 20 min, stained with 0.1% crystal violet for 20 min and washed three times with PBS. The number of H1299 cells that migrated to the underside of the membrane was counted under the inverted fluorescence microscope. Three randomly selected areas from each transwell were photographed and calculated using Image J.

H1299 cells [3] = assay: Wound healing assay; assay type: cell-based, human; conditions: 24 h
Description: H1299 cells were seeded in a 6-well plate, When the cell confluency reached 95%, a wound line was scratched using a 200 µl pipette tip, and then washed three times, fresh medium containing 7a or 7j (2, 4 and 8 μmol/L) was added, and the plate was incubated at 37 °C with 5% CO2. All the images were captured at 0 h and 24 h under an inverted microscope, and the quantification of scratches was analysed using Image J.

H1299 cells [4] = assay: DAPI staining for cell apoptosis; assay type: cell-based, human; conditions: H1299, 2, 4 and 8 μmol/L, 48 h
Description: In order to further verify the apoptotic activity induced by 7a and 7j in lung cancer cells, H1299 cells were treated with different concentrations of compounds 7a and 7j for 48 h, followed by DAPI staining. […] As the drug concentration increased, nuclear staining intensified, and even nuclear condensation and fragmentation phenomena were observed.
H1299 (1.5 × 10^4 ~ 2 × 10^4 /well) cells were seeded in 24-well plates for 24 h, and then treated with 7a or 7j at the concentrations of 2,4 and 8 μmol/L for 48 h., the cells were fixed for 30 min at room temperature in 4% paraformaldehyde and washed 3 times in PBS. Finally, every well was stained with DAPI (10 µg/mL, C0065, Solarbio) at room temperature for 30 min, and washed at least three times in PBS. The fluorescence microscope was used to observe the morphological changes of cell nuclei.

[5] = tested on: Bcl-2, caspase9, Cleaved-Caspase3, Cleaved-PARP, MMP9 in H1299 cells; assay: Western blot of apoptosis- and migration-related proteins; assay type: cell-based, human; conditions: H1299, 4, 8 or 16 μM, 48 h
Excerpt: We conducted an in-depth investigation into the mechanism of apoptosis induced by compounds 7a and 7j. The Bcl-2 protein family is located upstream of the apoptosis signaling pathway. Bcl-2 proteins play an anti-apoptotic role by inhibiting the release of cytochrome C (cyt-c) from mitochondria. Previous literature reports that many anticancer drugs induce apoptosis by downregulating Bcl-2 expression. During apoptosis, the expression of Bcl-2 is inhibited, cyt-c is released, and it binds with the apoptotic protease activation factor to form the apoptosome. This triggers a cascade reaction of Caspase family proteins, with apoptosome promoting the activation of Caspase9. Activated Caspase9 then activates Caspase3, forming the Caspase3 cleavage body, which further activates downstream PARP protein, ultimately promoting cell apoptosis. […] After treating H1299 cells with different concentrations of compounds for 48 h, cell proteins were extracted, and western blot was used to detect the expression changes of apoptosis-related proteins.
Firstly, H1299 cells were treated with different concentrations concentrations of 7a and 7j at 4, 8 and 16 μmol/L for 48 h, cells were harvested using RIPA lysate (R0010, Solarbio) and centrifuged at 12,000 rpm for 15 min at 4 °C, and then the concentration of total protein was measured and taken from the supernatant. Protein was separated by 12% SDS–polyacrylamide gel electrophoresis and transferred to nitrocellulose filter membrane. after blocking in 5% milk for 2 h, the membranes were incubated with specific primary antibody at 4 °C overnight. Next day, NC membranes were incubated for 1 h at room temperature with appropriate secondary antibodies, and then Protein bands was visualizing by chemiluminescence detection (ECL kit, Genview).

H1299 cells [6] = assay: Flow cytometry detection of apoptosis (Annexin V-EGFP/PI); assay type: cell-based, human; conditions: 48 h
Description: H1299 cells were treated with different concentrations of 7a and 7j for 48 h. The cells were stained with Annexin-V and PI, and the proportion of apoptotic cells was detected using flow cytometry.
H1299 cells were seeded in a 6-well plate at a density of 1 × 10^5 cells/well and incubated for 24 h. On the following day, the medium was replaced with fresh medium containing 7a or 7j (2, 4 and 8 μmol/L) and cells were incubated for an additional 48 h. Cell apoptosis was detected using Annexin V-EGFP/PI apoptosis detection Kit by flow cytometry. Subsequently, 5 µl of […] Annexin V and 10 µl of PI was added to the cell suspension, gently vortexed, and incubated at room temperature in the dark for 20 min, then single-cell suspension was prepared followed by flow cytometry (BD Accuri™ C6 Plus).

COc1cc2ncnc(Nc3cccc(-c4cn(Cc5cc(F)ccc5C#N)nn4)c3)c2cc1OCCCN1CCOCC1 [Compound 7n] was tested, and the IC50 (NCI-H1299 cells) was 6.02 ± 0.24 µM, the IC50 (NCI-H1437 cells) was 4.67 ± 0.28 µM and the IC50 (A549 cells) was 3.78 ± 0.03 µM.
In the case of COc1cc2ncnc(Nc3cccc(-c4cn(-c5ccccc5F)nn4)c3)c2cc1OCCCN1CCOCC1 [Compound 7q], the IC50 (NCI-H1299 cells) is reported as 7.68 ± 0.11 µM, the IC50 (NCI-H1437 cells) is reported as 7.21 ± 0.1 µM and the IC50 (A549 cells) is reported as 9.03 ± 0.15 µM.
Molecule COc1cc2ncnc(Nc3cccc(-c4cn(Cc5ccc([N+](=O)[O-])cc5)nn4)c3)c2cc1OCCCN1CCOCC1 [Compound 7f] has an IC50 (NCI-H1299 cells) of 5.65 ± 0.16 µM, an IC50 (NCI-H1437 cells) of 3.95 ± 0.45 µM and an IC50 (A549 cells) of 16.4 ± 1.07 µM.
Molecule COc1cc2ncnc(Nc3cccc(-c4cn(Cc5ccc(Cl)cc5)nn4)c3)c2cc1OCCCN1CCOCC1 [Compound 7k] has an IC50 (NCI-H1299 cells) of 6.9 ± 0.23 µM, an IC50 (NCI-H1437 cells) of 2.9 ± 0.23 µM and an IC50 (A549 cells) of 4.91 ± 0.52 µM.
With COc1cc2ncnc(Nc3cccc(-c4cn(-c5ccc([N+](=O)[O-])cc5OC)nn4)c3)c2cc1OCCCN1CCOCC1 [Compound 7t] the IC50 (NCI-H1299 cells) was 13 ± 0.23 µM, the IC50 (NCI-H1437 cells) was 14.93 ± 0.14 µM and the IC50 (A549 cells) was 13.5 ± 0.33 µM.
With COc1cccc(-n2cc(-c3cccc(Nc4ncnc5cc(OC)c(OCCCN6CCOCC6)cc45)c3)nn2)c1 [Compound 7r] the IC50 (NCI-H1299 cells) was 9.35 ± 0.31 µM, the IC50 (NCI-H1437 cells) was 6.21 ± 0.23 µM and the IC50 (A549 cells) was 12.9 ± 0.25 µM.
Work on COc1cc2ncnc(Nc3cccc(-c4cn(Cc5cc(C)cc(C)c5)nn4)c3)c2cc1OCCCN1CCOCC1 [Compound 7m] yielded an IC50 (NCI-H1299 cells) of 4.48 ± 0.41 µM, an IC50 (NCI-H1437 cells) of 3.72 ± 0.17 µM and an IC50 (A549 cells) of 6.54 ± 0.21 µM.
For COc1cc2ncnc(Nc3cccc(-c4cn(Cc5ccc(I)cc5)nn4)c3)c2cc1OCCCN1CCOCC1 [Compound 7i], the IC50 (NCI-H1299 cells) was 5.6 ± 0.09 µM, the IC50 (NCI-H1437 cells) was 4.69 ± 0.23 µM and the IC50 (A549 cells) was 5.76 ± 0.62 µM.
COc1cc2ncnc(Nc3cccc(-c4cn(Cc5cccc(Cl)c5)nn4)c3)c2cc1OCCCN1CCOCC1 [Compound 7j] was tested, and the IC50 (L02 cells; Homo sapiens, normal hepatocytes L02) was 17.7 ± 0.52 µM, the “Survival rate %, 48 h” value (L02 cells; 2 μM) was 94.49 ± 4.11% and the “Survival rate %, 48 h” value (L02 cells; 4 μM) was 89.12 ± 5.50%. The “Survival rate %, 48 h” value (L02 cells; 8 μM) was 75.59 ± 2.65%, the “Survival rate %, 48 h” value (L02 cells; 16 μM) was 59.14 ± 1.54% and the “Survival rate %, 48 h” value (L02 cells; 32 μM) was 24.48 ± 3.68%. For the same molecule, the “formation of H1299 cell colonies” value (H1299 cells [1]; 1 μmol/L) was “markedly inhibit”, the colony formation (H1299 cells [1]; H1299, 4 μmol/L) was “almost completely suppressed” and the IC50 (NCI-H1299 cells) was 3.84 ± 0.22 µM. For the same molecule, the “number of cells passing through the membrane to the lower surface of the chamber” value (H1299 cells [2]) was “significantly decreased”, the migration closure rate (H1299 cells [3]; H1299, 2 μmol/L) was 72.57 ± 3.43% and the migration closure rate (H1299 cells [3]; H1299, 4 μmol/L) was 60.91 ± 8.48%. For the same molecule, the migration closure rate (H1299 cells [3]; H1299, 8 μmol/L) was 48.88 ± 3.23%, the IC50 (NCI-H1437 cells) was 1.69 ± 0.25 µM and the “apoptotic morphology by DAPI staining” value (H1299 cells [4]) was “exhibited typical apoptotic features”. For the same molecule, the “Bcl-2 protein expression level” value [5] was “decrease”, the “Cleaved-Caspase3 protein expression level” value [5] was “increased” and the “Cleaved-PARP protein expression level” value [5] was “increased”. For the same molecule, the MMP9 protein expression [5] was “downregulated”, the “caspase9 protein expression level” value [5] was “decrease” and the “total apoptotic cell proportion” value (H1299 cells [6]; H1299, 2 μmol/L) was 14.97 ± 1.54%. For the same molecule, the “total apoptotic cell proportion” value (H1299 cells [6]; H1299, 4 μmol/L) was 27.07 ± 2.77%, the “total apoptotic cell proportion” value (H1299 cells [6]; H1299, 8 μmol/L) was 65.77 ± 2.93% and the IC50 (A549 cells) was 3.86 ± 0.38 µM.
COc1cc2ncnc(Nc3cccc(-c4cn(-c5cccc([N+](=O)[O-])c5)nn4)c3)c2cc1OCCCN1CCOCC1 [Compound 7s] showed an IC50 (NCI-H1299 cells) of 9.68 ± 0.21 µM, an IC50 (NCI-H1437 cells) of 8.21 ± 0.13 µM and an IC50 (A549 cells) of 11 ± 0.25 µM.
